In article PMC10101059, “Rational Design of Stapled Antimicrobial Peptides to Enhance Stability and In Vivo Potency against Polymicrobial Sepsis” (Microbiology Spectrum, 2023):
Converted amounts (≈) assume the structure as drawn. Like-named read-outs stand apart in the source and are kept apart here.

Tests used:
P. aeruginosae = assay: microbe, parasite or virus in culture; assay type: cell-based, Pseudomonas aeruginosa
MDR A. baumannii 2998 = assay: microbe, parasite or virus in culture; assay type: cell-based, Acinetobacter baumannii; conditions: for MBC: read-out: MBC
Procedure, shortened: (§1)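 Broth microdilution per modified NCCLS protocol: 5 × 10^5 CFU/mL bacteria exposed to serial peptide concentrations, 37 ± 2°C for 16 to 20 h. MIC = lowest concentration giving clear wells; clear wells plated on Mueller-Hinton agar overnight at 37 ± 2°C, MBC = lowest concentration with no growth. Serum sensitivity tested in medium with 50% human serum.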

MDR A. baumannii 2088 = assay: microbe, parasite or virus in culture; assay type: cell-based, Acinetobacter baumannii; conditions: for MBC: read-out: MBC; for MIC: read-out: MIC
Procedure, shortened: as §1

MDR A. baumannii 1607 [1] = assay: microbe, parasite or virus in culture; assay type: cell-based, Acinetobacter baumannii; conditions: for MBC: read-out: MBC
Procedure, shortened: as §1

MDR A. baumannii 1702 [2] = assay: microbe, parasite or virus in culture; assay type: cell-based, Acinetobacter baumannii; conditions: for MBC: read-out: MBC; for MIC: read-out: MIC
Procedure, shortened: as §1

MDR A. baumannii 1033 = assay: microbe, parasite or virus in culture; assay type: cell-based, Acinetobacter baumannii; conditions: for MBC: read-out: MBC; for MIC: read-out: MIC
Procedure, shortened: as §1

MDR A. baumannii 14B0091 = assay: microbe, parasite or virus in culture; assay type: cell-based, Acinetobacter baumannii
Procedure, shortened: as §1

MDR A. baumannii 2982 [3] = assay: microbe, parasite or virus in culture; assay type: cell-based, Acinetobacter baumannii
Procedure, shortened: as §1

MDR A. baumannii 3618 = assay: microbe, parasite or virus in culture; assay type: cell-based, Acinetobacter baumannii
Procedure, shortened: as §1

MDR A. baumannii 1019 [4] = assay: microbe, parasite or virus in culture; assay type: cell-based, Acinetobacter baumannii
Procedure, shortened: as §1

MDR A. baumannii 2997 = assay: microbe, parasite or virus in culture; assay type: cell-based, Acinetobacter baumannii; conditions: for MBC: read-out: MBC; for MIC: read-out: MIC
Procedure, shortened: as §1

MDR A. baumannii 1607 [5] = assay: microbe, parasite or virus in culture; assay type: cell-based, Acinetobacter baumannii
Protocol: (§2) The FICI was measured using a standard checkerboard microdilution assay ([57]). Two-fold dilutions of antibiotics were made across the x axis, and two-fold peptide dilutions were made across the y axis. Next, bacteria were added at 5 × 10^5 CFU/well (A. baumannii), followed by incubation at 37 ± 2°C for 16 to 20 h. FIC indices were calculated according to the following equations: FICI = FIC1 + FIC2; FIC1 = (MIC12 combined)/MIC1; FIC2 = (MIC12 combined)/MIC2. The combined efficacy was estimated as follows: FICI ≤ 0.5, synergistic; 0.5 to 1, additive; 1 to 2, indifferent; ≥2, antagonistic.

MDR A. baumannii 921 = assay: microbe, parasite or virus in culture; assay type: cell-based, Acinetobacter baumannii
Protocol: as §2

MDR A. baumannii 1702 [6] = assay: microbe, parasite or virus in culture; assay type: cell-based, Acinetobacter baumannii
Protocol: as §2

MDR A. baumannii 2982 [7] = assay: microbe, parasite or virus in culture; assay type: cell-based, Acinetobacter baumannii; remark: listed apart in the source
Protocol: as §2

MDR A. baumannii 14B001 = assay: microbe, parasite or virus in culture; assay type: cell-based, Acinetobacter baumannii
Protocol: as §2

MDR A. baumannii 1019 [8] = assay: microbe, parasite or virus in culture; assay type: cell-based, Acinetobacter baumannii; remark: listed apart in the source
Protocol: as §2

MDR A. baumannii 2962 = assay: microbe, parasite or virus in culture; assay type: cell-based, Acinetobacter baumannii
Protocol: as §2

S enterica = assay: Checkerboard microdilution assay (FICI); assay type: cell-based, Salmonella enterica
A. baumannii biofilm = assay: Biofilm inhibition assay; assay type: cell-based, Acinetobacter baumannii; conditions: 0.5× to 4× MIC
Protocol: (i) Biofilm inhibition assay. Fifty μL of 2 × 10^6 CFU/mL A. baumannii bacterial suspension was added to a 96-well plate. Then, 50 μL of peptide/drug (various concentrations) was added, and the plate was incubated for 24 h. The residual solution was removed, and wells were washed, followed by treatment with 100% methanol for 15 min at room temperature. The methanol was then removed, and the wells were allowed to dry at room temperature. Next, the wells were incubated with 100 μL of 0.02% crystal violet for 30 min. After the incubation, the wells were washed with distilled water and dried for an appropriate length of time. Finally, 100 μL of 33% acetic acid was added to the wells for 1 h, followed by reading the absorbance at 595 nm ([55]).

[9] = MIC of each agent in combination, TP4-3 and M
[10] = Acinetobacter baumannii, MHB medium
[11] = HS, MH medium containing 50% human serum
[12] = Acinetobacter baumannii, read-out: Single drug treatment MIC

What does the source list for `C[C@@H](O)[C@H]1C(=O)N2C(C(=O)O)=C(S[C@@H]3CN[C@H](C(=O)N(C)C)C3)[C@H](C)[C@H]12` [Meropenem]?
TP4-3 and meropenem combined MIC (P. aeruginosae; [9]): 0.78 µM; MIC (P. aeruginosae; Pseudomonas aeruginosa, read-out: Single drug treatment MIC): 0.39 µM (≈ 0.15 µg/mL); MIC (MDR A. baumannii 2998; [10]): > 25 µM; MBC (MDR A. baumannii 2998; [10]): > 25 µM; MIC (MDR A. baumannii 2998; [11]): >25 µM; MBC (MDR A. baumannii 2998; [11]): >25 µM; MBC (MDR A. baumannii 2088; [10]): > 25 µM; MIC (MDR A. baumannii 2088; [10]): > 25 µM; MBC (MDR A. baumannii 2088; [11]): >25 µM; MIC (MDR A. baumannii 2088; [11]): >25 µM; MIC (MDR A. baumannii 1607 [1]; [10]): > 25 µM; MBC (MDR A. baumannii 1607 [1]; [10]): > 25 µM; MIC (MDR A. baumannii 1607 [1]; [11]): >25 µM; MBC (MDR A. baumannii 1607 [1]; [11]): >25 µM; MBC (MDR A. baumannii 1702 [2]; [10]): > 25 µM; MIC (MDR A. baumannii 1702 [2]; [10]): > 25 µM; MBC (MDR A. baumannii 1702 [2]; [11]): >25 µM; MIC (MDR A. baumannii 1702 [2]; [11]): >25 µM; MBC (MDR A. baumannii 1033; [10]): > 25 µM; MIC (MDR A. baumannii 1033; [10]): > 25 µM; MBC (MDR A. baumannii 1033; [11]): >25 µM; MIC (MDR A. baumannii 1033; [11]): >25 µM; MBC (MDR A. baumannii 14B0091; [10]): > 25 µM; MIC (MDR A. baumannii 14B0091; [10]): > 25 µM; MBC (MDR A. baumannii 14B0091; [11]): >25 µM; MIC (MDR A. baumannii 14B0091; [11]): >25 µM; MBC (MDR A. baumannii 2982 [3]; [10]): > 25 µM; MIC (MDR A. baumannii 2982 [3]; [10]): > 25 µM; MBC (MDR A. baumannii 2982 [3]; [11]): >25 µM; MIC (MDR A. baumannii 2982 [3]; [11]): >25 µM; MBC (MDR A. baumannii 3618; [10]): > 25 µM; MIC (MDR A. baumannii 3618; [10]): > 25 µM; MBC (MDR A. baumannii 3618; [11]): >25 µM; MIC (MDR A. baumannii 3618; [11]): >25 µM; MBC (MDR A. baumannii 1019 [4]; [10]): > 25 µM; MIC (MDR A. baumannii 1019 [4]; [10]): > 25 µM; MBC (MDR A. baumannii 1019 [4]; [11]): >25 µM; MIC (MDR A. baumannii 1019 [4]; [11]): >25 µM; MBC (MDR A. baumannii 2997; [10]): > 25 µM; MIC (MDR A. baumannii 2997; [10]): > 25 µM; MBC (MDR A. baumannii 2997; [11]): >25 µM; MIC (MDR A. baumannii 2997; [11]): >25 µM; MIC (MDR A. baumannii 1607 [5]; [12]): 100 µM; TP4-3 and meropenem combined MIC (MDR A. baumannii 1607 [5]; [9]): 12.5 µM; MIC (MDR A. baumannii 921; [12]): 400 µM; TP4-3 and meropenem combined MIC (MDR A. baumannii 921; [9]): 100 µM; MIC (MDR A. baumannii 1702 [6]; [12]): 25 to 50 µM; TP4-3 and meropenem combined MIC (MDR A. baumannii 1702 [6]; [9]): 12.5 µM; MIC (MDR A. baumannii 2982 [7]; [12]): 400 µM; TP4-3 and meropenem combined MIC (MDR A. baumannii 2982 [7]; [9]): 200 µM; MIC (MDR A. baumannii 14B001; [12]): 800 µM; TP4-3 and meropenem combined MIC (MDR A. baumannii 14B001; [9]): 400 µM; MIC (MDR A. baumannii 1019 [8]; [12]): 50 µM; TP4-3 and meropenem combined MIC (MDR A. baumannii 1019 [8]; [9]): 6.25 µM; MIC (MDR A. baumannii 2962; [12]): 100 µM; TP4-3 and meropenem combined MIC (MDR A. baumannii 2962; [9]): 25 µM; TP4-3 and meropenem combined MIC (S enterica; [9]): 0.19 µM; MIC (S enterica; Salmonella enterica, read-out: Single drug treatment MIC): 6.25 µM; inhibition of biofilm (biomass) formation (A. baumannii biofilm): substantial inhibition of biomass formation
